Data taken from patent US20140054163A1, “METHODS FOR REACTING CYSTEINE RESIDUES IN PEPTIDES AND PROTEINS” (University of George Risearch Foundation, Inc., priority 2012, published 2014).

Tests used:
Papain from papaya latex [1] = target: T1, Papain from papaya latex (Carica papaya, UniProt P00784); test: Photochemical inhibition of papain activity by NQMP-TEG (L-BAPNA hydrolysis rate); type: biochemical; settings: for Relative activity: PBS
T1 construct: from tissue; host or cells: papaya latex
T1 sequence (P00784 134-345): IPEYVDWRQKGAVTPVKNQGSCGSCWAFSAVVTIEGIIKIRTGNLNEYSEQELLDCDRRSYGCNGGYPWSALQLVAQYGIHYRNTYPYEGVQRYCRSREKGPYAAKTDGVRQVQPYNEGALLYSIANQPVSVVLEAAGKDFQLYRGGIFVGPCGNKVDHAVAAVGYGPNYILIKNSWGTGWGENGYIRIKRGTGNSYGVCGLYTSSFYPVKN
Description: (§1) Papain was activated by incubation the enzyme with 100-40 fold excess of free cysteine for 45 minutes in PBS solution. The concentration of the papain in the stock solution was determined by its […] at 280 nm (s=57600 M^−1 cm^−1) (Pace et. al., Protein Sci. 1995, 4:2411-2423). The activity of the protease was measured using N-α-benzoyl-L-arginine-p-nitroanilide (L-BAPNA). […] The formation of the latter can be followed by the rise of characteristic absorbance at 410 nm (ε=9800). Water-soluble NQMP-TEG (FIG. 13) was employed for inhibition experiments.
A PBS solution containing 1.7 μM of papain, 80 μM of cysteine and variable amounts of NQMP-TEG was irradiated for 2 minutes with 350 nm fluorescent lamps. A stock solution of BAPNA was then added to a photolysate to achieve 800 μM concentration of the substrate and rate of hydrolysis was measured (Table 5, FIG. 14).
A PBS solution containing 0.91 μM of papain, 44 μM of cysteine and 109 μM of NQMP-TEG was irradiated for 2, 3 or 4 minutes with 350 nm fluorescent lamps. A stock solution of BAPNA was then added to a photolysate to achieve 200 μM concentration of the substrate and rate of hydrolysis was measured (Table 6, FIG. 15).

[2] = Aqueous solubility of NQMP derivatives; settings: wholly aqueous solutions
[3] = Cysteine specificity of NQMP photo-click reaction, peptides lacking free cysteine; settings: irradiation of peptides 6 and 7 with 4 to 12 equivalents of NQMP-TEG, HPLC analysis
Description: To test the cysteine specificity of NQMP photo-click reaction, two analogs of peptide 4 containing the same amino acid sequence but lacking free cysteine were prepared. In nonapeptide 6 cysteine residue was replaced with methionine, while the thiol group in 4 was converted into disulfide bond by oxidative dimerization to form oligopeptide 7. […] These experiments show the high specificity of addition of photochemically generated oNQM to cysteine thiol group.
0.1 mM PBS solutions of peptides 4, 6, and 7 were irradiated with 300 or 350 nm fluorescent lamps in the presence of variable amounts of NQMP-TEG (2c, 0.1-0.4 mM). Composition of the photolysates was analyzed using HPLC (FIG. 17). Peptide 4-NQMP-TEG conjugate (5) was isolated using semi-prep C-18 HPLC column and characterized by ESI-HRMS (FIG. 18). The concentration of labeled peptide 5 was determined by UV spectroscopy using characteristic 330 nm band of NQMP chromophore. This solution was then used in calibration of HPLC instruments.

[4] = Photochemical stability on irradiation in PBS, HPLC analysis; type: physicochemical; settings: 0.1 mM PBS solutions irradiated separately for 12 minutes, 300 and 350 nm fluorescent lamps
Description: It is important to note that peptide 4 and NQMP-TEG (1c) are photochemically stable under these conditions. […] Obviously, NQMP 1c still forms oNQM 2c but in the absence of thiols the latter rapidly undergoes hydration back to starting materials.
0.1 mM PBS solutions of NQMP-TEG (2c) and peptide 4 were irradiated separately for 12 minutes using both 300 and 350 nm fluorescent lamps.

Papain from papaya latex [5] = target: T1, Papain from papaya latex; test: Photochemical restoration (re-activation) of NQMP-inhibited papain activity; type: biochemical; settings: for Papain Activity: photolysate with inhibited papain, NQMP-TEG, cysteine plus 2-(2-(vinyloxy)ethoxy)ethanol equal to initial NQMP-TEG
Description: as §1
A sample of deactivated papain was prepared as described above. The protein was separated from low molecular weight compounds using gel filtration (Sephadex PD-10 column). To check for the completeness of inhibition an excess of cysteine was added to a PBS solution of the inhibited papain and incubated for 45 minutes. […] This solution was then re-irradiated with 350 nm fluorescent lamps for 15 minutes.
Alternatively, re-activation of papain was achieved without isolation of inhibited enzyme. Ethyl vinyl ether derivative, 2-(2-(vinyloxy)ethoxy)ethanol, was added to a photolysate containing inhibited papain, NQMP-TEG, and cysteine in PBS solution. The amount of vinyl ether added was equal to the initial amount of NQMP-TEG.

8-TEG-3-(hydroxymethyl)naphthalen-2-ol [NQMP-TEG]
Relative activity (Papain from papaya latex [1]; 100 μM NQMP-TEG, 1.7 μM papain, 80 μM cysteine, 2 minutes irradiation at 350 nm, 800 μM BAPNA): 65%
Relative activity (Papain from papaya latex [1]; 109 μM NQMP-TEG, 0.91 μM papain, 44 μM cysteine, 2 minutes irradiation at 350 nm, 200 μM BAPNA): 52%
Relative activity (Papain from papaya latex [1]; 109 μM NQMP-TEG, 0.91 μM papain, 44 μM cysteine, 3 minutes irradiation at 350 nm, 200 μM BAPNA): 27%
Relative activity (Papain from papaya latex [1]; 109 μM NQMP-TEG, 0.91 μM papain, 44 μM cysteine, 4 minutes irradiation at 350 nm, 200 μM BAPNA): 0%
Relative activity (Papain from papaya latex [1]; 109 μM NQMP-TEG, 0.91 μM papain, 44 μM cysteine, irradiation time 0 minutes, 200 μM BAPNA): 100%
Relative activity (Papain from papaya latex [1]; 150 μM NQMP-TEG, 1.7 μM papain, 80 μM cysteine, 2 minutes irradiation at 350 nm, 800 μM BAPNA): 48%
Relative activity (Papain from papaya latex [1]; 200 μM NQMP-TEG, 1.7 μM papain, 80 μM cysteine, 2 minutes irradiation at 350 nm, 800 μM BAPNA): 43%
Relative activity (Papain from papaya latex [1]; 250 μM NQMP-TEG, 1.7 μM papain, 80 μM cysteine, 2 minutes irradiation at 350 nm, 800 μM BAPNA): 27%
Relative activity (Papain from papaya latex [1]; 300 μM NQMP-TEG, 1.7 μM papain, 80 μM cysteine, 2 minutes irradiation at 350 nm, 800 μM BAPNA): 17%
Relative activity (Papain from papaya latex [1]; 400 μM NQMP-TEG, 1.7 μM papain, 80 μM cysteine, 2 minutes irradiation at 350 nm, 800 μM BAPNA): 0%
Concentration required to completely inhibit the activity of Papain (Papain from papaya latex [1]; 2 minutes of irradiation at 350 nm, 1.7 μM papain, 80 μM cysteine): about 350 μM
Aqueous solubility [2]: freely soluble in wholly aqueous solutions up to millimolar concentrations
Labeling of peptides lacking free cysteine (selectivity) [3]: produced no labeled products
Photochemical stability (decomposition or losses by HPLC) [4]: No decomposition or losses of materials were detected
Papain Activity (Papain from papaya latex [5]; 350 nm irradiation 0 minutes): 0%
Papain Activity (Papain from papaya latex [5]; 350 nm irradiation 3 minutes): 28%
Papain Activity (Papain from papaya latex [5]; 350 nm irradiation 4 minutes): 40%
Papain Activity (Papain from papaya latex [5]; 350 nm irradiation 5 minutes): 47%
Papain Activity (Papain from papaya latex [5]; 350 nm irradiation 7 minutes): 58%
Papain Activity (Papain from papaya latex [5]; 350 nm irradiation 8 minutes): 76%

OCc1cc2ccccc2cc1O [1a, 3-hydroxy-2-naphthalenemethanol]
Aqueous solubility [2]: rather low aqueous solubility

OCc1cc2cccc(O)c2cc1O [1b, 6-(hydroxymethyl)naphthalene-1,7-diol]
Aqueous solubility [2]: rather low aqueous solubility

Ac-Cys-Lys-Tyr-Trp-Gly-Arg-Asp-Ser-NH2 (Ac-CKYWGRDS-NH2) [compound 4]
Photochemical stability (decomposition or losses by HPLC) [4]: No decomposition or losses of materials were detected

B1: inhibited papain: papain deactivated by irradiation with NQMP-TEG; a single NQMP-TEG unit added as thioether (conjugate, UniProt P00784 134-345, looked up)
Papain: T1 sequence (P00784 134-345)
modifications: NQMP-TEG thioether adduct, inactivated
Protease activity (L-BAPNA cleavage) after incubation with excess cysteine (Papain from papaya latex [5]; gel-filtered inhibited papain in PBS, excess of cysteine, 45 minutes, no re-irradiation): does not cleave L-BAPNA
Restoration of papain activity relative to wild type papain (Papain from papaya latex [5]; gel-filtered inhibited papain, no NQMP reagent, re-irradiated with 350 nm lamps for 15 minutes): 85-92%
